One test deals with HIV-1 protease (Human immunodeficiency virus type 1 group M subtype B, UniProt P04585). The experiment in a line: biochemical. The following applies: HIV-1 protease; upper line of each compound's entry; read-out: Ki (enzyme).
In the next test the test system is HIV-1 (strain IIIB). The experiment in a line: microbe, parasite or virus in culture. Format: cell-based. The following applies: lower line of each compound's entry, read-out: IC50 (MT-4 cells).
Setting [1] is: Human immunodeficiency virus 1, 120 h, MT4 cells infected with HIV-1 strain IIIB, 5 days.
The mark [2] stands for this setting: MT4 cells infected with HIV-1 strain IIIB, 5 days.

By Ki is commonly meant a measure of affinity in units of concentration, obtained from inhibition or displacement. One may read the IC50 as the concentration that inhibits the measured activity by half.

Each structure is given as a SMILES string. Read-outs that look alike come from different tables or passages of the source.

Take `CC(C)(C)OC(=O)CNc1cccc(S(=O)(=O)N(CC(O)C(Cc2ccccc2)NC(=O)OC2COC3OCCC23)OC2CCCC2)c1` (mixture of isomers) [Compound 30, tert-butyl 2-(3-[[(2R,3S)-3-([(3R,3aS,6aR)hexahydrofuro[2,3-b]furan-3-yloxy]carbonylamino)-2-hydroxy-4-phenylbutyl](cyclopentyloxy)amino]sulfonylanilino)acetate and tert-butyl 2-(3-[[(2R,3S)-3-([(3S,3aR,6aS)hexahydrofuro[2,3-b]furan-3-yloxy]carbonylamino)-2-hydroxy-4-phenylbutyl](cyclopentyloxy)amino]sulfonylanilino)acetate]: the Ki on HIV-1 protease was < 0.001 µM. Moreover, the IC50 in the test with HIV-1 (strain IIIB) (setting [1]) lay in the range of 0.1 to 0.5 µM.

For `COC(=O)Nc1nc2cc(S(=O)(=O)N(C[C@@H](O)[C@H](Cc3ccccc3)NC(=O)OC3CO[C@H]4OCC[C@@H]34)OC3CCCC3)ccc2[nH]1` (mixture of isomers) [Compound 54, (3aS,6aR)Hexahydrofuro[2,3-b]furan-3-yl N-(1S,2R)-1-benzyl-3-[(cyclopentyloxy)(2-[(methoxycarbonyl)amino]-1H benzimidazol-5-ylsulfonyl)amino]-2-hydroxypropylcarbamate], the Ki at HIV-1 protease is < 0.001 µM. Moreover, the IC50 with HIV-1 (strain IIIB) (setting [1]) is ≤ 0.1 µM.

Consider `CON(C)C(=O)CNc1cccc(S(=O)(=O)N(CC(O)C(Cc2ccccc2)NC(=O)OC2COC3OCCC23)OC2CCCC2)c1` (mixture of isomers) [Compound 88, (3R,3aS,6aR)hexahydrofuro[2,3-b]furan-3-yl N-[(1S,2R)-1-benzyl-3-((cyclopentyloxy)[3-(2-[methoxy(methyl)amino]-2-oxoethylamino)phenyl]sulfonylamino)-2-hydroxypropyl]carbamate and (3S,3aR,6aS)hexahydrofuro[2,3-b]furan-3-yl N-[(1S,2R)-1-benzyl-3-((cyclopentyloxy)[3-(2[methoxy(methyl)amino]-2-oxoethylamino)phenyl]sulfonylamino)-2-hydroxypropyl]carbamate], for which, on HIV-1 protease, the Ki was < 0.001 µM. In the test on HIV-1 (strain IIIB) (setting [1]), the IC50 was ≤ 0.1 µM.

With `CCOC(=O)CNC(=O)NCCNc1cccc(S(=O)(=O)N(CC(O)C(Cc2ccccc2)NC(=O)OC2COC3OCCC23)OC2CCCC2)c1` (mixture of isomers) [Compound 113, Ethyl 2-[([2-(3-[[(2R,3S)-3-([(3R,3aS,6aR)hexahydrofuro[2,3-b]furan-3-yloxy]carbonylamino)-2-hydroxy-4-phenylbutyl](cyclopentyloxy)amino]sulfonylanilino)ethyl]aminocarbonyl)amino]acetate and ethyl 2-[([2-(3-[[(2R,3S)-3-([(3S,3aR,6aS)hexahydrofuro[2,3-b]furan-3-yloxy]carbonylamino)-2-hydroxy-4 phenylbutyl](cyclopentyloxy)amino]sulfonylanilino)ethyl]aminocarbonyl)amino]acetate], the Ki on HIV-1 protease was < 0.001 µM. In addition, the IC50 in the test on HIV-1 (strain IIIB) (setting [1]) was ≤ 0.1 µM.

As to `COc1cc(C(=O)Nc2nc3cc(S(=O)(=O)N(C[C@@H](O)[C@H](Cc4ccccc4)NC(=O)OC(C)(C)C)OC4CCCC4)ccc3[nH]2)cc(OC)c1OC` [Compound 12, Tert-butyl N-(1S,2R)-1-benzyl-3-[(cyclopentyloxy)(2-[(3,4,5-trimethoxyphenyl-carbonyl)amino]-1H-benzimidazol-5-ylsulfonyl)amino]-2-hydroxypropylcarbamate], on HIV-1 protease, the Ki was > 0.01 µM.

As for `COC(=O)CC(=O)Nc1nc2cc(S(=O)(=O)N(C[C@@H](O)[C@H](Cc3ccccc3)NC(=O)OC(C)(C)C)OC3CCCC3)ccc2[nH]1` [Compound 13, Tert-butyl N-(1S,2R)-1-benzyl-3-[(cyclopentyloxy)(2-[(methyl3-oxopropionate)amino]-1H-benzimidazol-5-ylsulfonyl)amino]-2-hydroxypropylcarbamate], the Ki at HIV-1 protease was 0.01 to 0.1 µM.

For the compound `O=C(N[C@@H](Cc1ccccc1)[C@H](O)CN(OC1CCCC1)S(=O)(=O)c1ccc(O)cc1)O[C@H]1CO[C@H]2OCC[C@H]21` [Compound 41, (3R,3aS,6aR)hexahydrofuro[2,3-b]furan-3-yl N-((1S,2R)-1-benzyl-3-(cyclopentyloxy)[(4-hydroxyphenyl)sulfonyl]amino-2-hydroxypropyl)carbamate], the IC50 with HIV-1 (strain IIIB) ([…]) was ≤ 0.1 µM.

For `O=C(N[C@@H](Cc1ccccc1)[C@H](O)CN(OC1CCCC1)S(=O)(=O)c1ccc(OCCO)cc1)O[C@H]1CO[C@H]2OCC[C@H]21` [Compound 42, (3R,3aS,6aR)hexahydrofuro[2,3-b]furan-3-yl N-[(1S,2R)-1-benzyl-3-((cyclopentyloxy)[4-(2-hydroxyethoxy)phenyl]sulfonylamino)-2-hydroxypropyl]carbamate], the Ki on HIV-1 protease was < 0.001 µM.

For the compound `CN(C)c1cccc(S(=O)(=O)N(CC(O)C(Cc2ccccc2)NC(=O)OC2COC3OCCC23)OC2CCCC2)c1` [Compound 43, (3R,3aS,6aR)hexahydrofuro[2,3-b]furan-3-yl N-(1S,2R)-3-[[(3-N,N-dimethylaminophenyl)sulfonyl)(cyclopentyloxy)amino)-1-benzyl-2-hydroxypropylcarbamate], the Ki at HIV-1 protease was < 0.001 µM.

On to `CC(C)ON(C[C@@H](O)[C@H](Cc1ccccc1)NC(=O)O[C@H]1CCOC1)S(=O)(=O)c1ccc2[nH]cnc2c1` [Compound 63, (3S)tetrahydro-3-furanyl N-(1S,2R)-3-[(1H-1,3-benzimidazol-5-ylsulfonyl)(isopropoxy)amino]-1-benzyl-2-hydroxypropylcarbamate], for which the Ki at HIV-1 protease was 0.001 to 0.01 µM.

In the case of `CC(=O)NCCNc1cccc(S(=O)(=O)N(CC(O)C(Cc2ccccc2)NC(=O)OC2COC3OCCC23)OC2CCCC2)c1` [Compound 84, (3R,3aS,6aR)hexahydrofuro[2,3-b]furan-3-yl N-(1S,2R)-3-[[(3-[2-(acetylamino)ethyl]aminophenyl)sulfonyl](cyclopentyloxy)amino]-1-benzyl-2-hydroxypropylcarbamate and (3S,3aR,6aS)hexahydrofuro[2,3-b]furan-3-yl N-(1S,2R)-3-[[(3-[2-(acetylamino)ethyl]aminophenyl)sulfonyl](cyclopentyloxy)amino]-1-benzyl-2-hydroxypropylcarbamate], the Ki on HIV-1 protease is < 0.001 µM.

On to `NC(=O)CNc1cccc(S(=O)(=O)N(CC(O)C(Cc2ccccc2)NC(=O)OC2COC3OCCC23)OC2CCCC2)c1` [Compound 85, (3R,3aS,6aR)hexahydrofuro[2,3-b]furan-3-yl N-(1S,2R)-3-[(3-[(2-amino-2-oxoethyl)amino]phenylsulfonyl)(cyclopentyloxy)amino]-1-benzyl-2-hydroxypropylcarbamate and (3S,3aR,6aS)hexahydrofuro[2,3-b]furan-3-yl N-(1S,2R)-3-[(3[(2-amino-2-oxoethyl)amino]phenylsulfonyl) (cyclopentyloxy)amino]-1-benzyl-2-hydroxypropylcarbamate], for which the Ki at HIV-1 protease is < 0.001 µM.

On to `O=C(NC(Cc1ccccc1)C(O)CN(OC1CCCC1)S(=O)(=O)c1ccc2[nH]nnc2c1)OC1COC2OCCC12` [Compound 91, (3aS,6aR)Hexahydrofuro[2,3-b]furan-3-yl N-(1S,2R)-1-benzyl-3-[(cyclopentyloxy)(benzotriazole-5-ylsulfonyl)amino]-2-hydroxypropylcarbamate], for which, on HIV-1 protease, the Ki was < 0.001 µM.

Consider `O=C(N[C@@H](Cc1ccccc1)[C@H](O)CN(OC1CCCC1)S(=O)(=O)c1ccc2[nH]nnc2c1)OC1COCOC1` [Compound 92, 1,3-Dioxan-5-yl N-(1S,2R)-1-benzyl-3-[(cyclopentyloxy)(benzotriazole-5-ylsulfonyl)amino]-2-hydroxypropylcarbamate], for which the Ki on HIV-1 protease is < 0.001 µM.

In the case of `O=C(N[C@@H](Cc1ccccc1)[C@H](O)CN(OC1CCCC1)S(=O)(=O)c1ccc(OCCN2CCOCC2)cc1)O[C@H]1CO[C@H]2OCC[C@H]21` [Compound 98, (3R,3aS,6aR)hexahydrofuro[2,3-b]furan-3-yl N-[(1S,2R)-1-benzyl-3-((cyclopentyloxy)[4-(2-morpholinoethoxy)phenyl]sulfonylamino)-2-hydroxypropyl]carbamate], the Ki on HIV-1 protease is < 0.001 µM.

On to `O=C(N[C@@H](Cc1ccccc1)[C@H](O)CN(OC1CCCC1)S(=O)(=O)c1cccc(OCCN2CCOCC2)c1)O[C@H]1CO[C@H]2OCC[C@H]21` [Compound 99, (3R,3aS,6aR)hexahydrofuro[2,3-b]furan-3-yl N-[(1S, 2R)-1-benzyl-3-((cyclopentyloxy)[3-(2-morpholinoethoxy)phenyl]sulfonylamino)-2-hydroxypropyl]carbamate], for which, on HIV-1 protease, the Ki is < 0.001 µM.

For `CS(=O)(=O)Nc1nc2cc(S(=O)(=O)N(C[C@@H](O)[C@H](Cc3ccccc3)NC(=O)OC3COCOC3)OC3CCCC3)ccc2[nH]1` [Compound 132, 1,3-Dioxan-5-yl-N-((1S,2R)-1-benzyl-3-(cyclopentyloxy)(2-[(methylsulfonyl)amino)benzimidazol-5-ylsulfonyl)amino-2-hydroxypropyl)carbamate], the IC50 in the test on HIV-1 (strain IIIB) (setting [2]) was ≤ 0.1 µM.

On to `COc1ccc(S(=O)(=O)N(C[C@@H](O)[C@H](Cc2ccccc2)NC(=O)OC(C)(C)C)OC(C)CCC#N)cc1` (some centres unmarked) [Compound 152, tert-butyl 1-benzyl-3-{(3-cyano-1-methylpropoxy)[(4-methoxyphenyl)sulfonyl]amino}-2-hydroxypropylcarbamate], for which the IC50 with HIV-1 (strain IIIB) (setting [2]) was in the range of 0.5 to 1 µM.

`Nc1ccc(S(=O)(=O)N(CC(O)C(Cc2ccccc2)NC(=O)OC2COC3OCCC23)OC2CCCC2)cc1` [Example 172, (3S,3aR,6aS)hexahydrofuro[2,3-b]furan-3-yl N-(1S,2R)-3-[[(4-aminophenyl)sulfonyl](cyclopentyloxy)amino]-1-benzyl-2-hydroxypropyl carbamate]: the IC50 with HIV-1 (strain IIIB) (setting [2]) was ≤ 0.1 µM.
